Results reported in PubChem BioAssay (NCI).
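All cell lines were grown in 96-well plates and treated with compound for 48 hours. The concentration for full growth arrest is given as TGI.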

Experiments:
Assay in all cases: NCI anticancer screen, dose series, 48 h
[1] = test system: 786-0 renal
[2] = test system: A498 renal
[3] = test system: A549 NSCLC
[4] = test system: ACHN renal
[5] = test system: BT-549 breast
[6] = test system: CAKI-1 renal
[7] = test system: COLO 205 colon
[8] = test system: DU-145 prostate
[9] = test system: EKVX NSCLC
[10] = test system: HCC-2998 colon
[11] = test system: HCT-116 colon
[12] = test system: HCT-15 colon
[13] = test system: HL-60(TB) leukemia
[14] = test system: HOP-62 NSCLC
[15] = test system: HOP-92 NSCLC
[16] = test system: HT29 colon
[17] = test system: IGROV1 ovarian
[18] = test system: KM12 colon
[19] = test system: LOX IMVI melanoma
[20] = test system: M14 melanoma
[21] = test system: MCF7 breast
[22] = test system: MDA-MB-231 breast
[23] = test system: MDA-MB-435
[24] = test system: MDA-N
[25] = test system: MOLT-4 leukemia
[26] = test system: NCI-H226 lung
[27] = test system: NCI-H23 lung
[28] = test system: NCI-H460 lung
[29] = test system: NCI/ADR-RES ovarian
[30] = test system: OVCAR-3 ovarian
[31] = test system: OVCAR-4 ovarian
[32] = test system: OVCAR-5 ovarian
[33] = test system: OVCAR-8 ovarian
[34] = test system: RXF 393 renal
[35] = test system: SF-268 CNS
[36] = test system: SF-295 CNS
[37] = test system: SF-539 CNS
[38] = test system: SK-MEL-2 melanoma
[39] = test system: SK-MEL-28 melanoma
[40] = test system: SK-MEL-5 melanoma
[41] = test system: SK-OV-3 ovarian
[42] = test system: SN12C renal
[43] = test system: SNB-19 CNS
[44] = test system: SNB-75 CNS
[45] = test system: SW-620 colon
[46] = test system: T-47D breast
[47] = test system: TK-10 renal
[48] = test system: U251 CNS
[49] = test system: UACC-257 melanoma
[50] = test system: UACC-62 melanoma
[51] = test system: UO-31 renal
[52] = test system: CCRF-CEM leukemia
[53] = test system: K-562 leukemia
[54] = test system: MALME-3M melanoma
[55] = test system: PC-3 prostate
[56] = test system: RPMI-8226 leukemia
[57] = test system: SR leukemia

## CCOP(=O)(OCC)/C(=C\n1c(=S)[nH]c2cc(C)ccc21)C(=O)OC
[1]
  TGI: > 100 µM
[2]
  TGI: > 100 µM
[3]
  TGI: > 100 µM
[4]
  TGI: > 100 µM
[5]
  TGI: > 100 µM
[6]
  TGI: > 100 µM
[7]
  TGI: > 100 µM
[8]
  TGI: > 100 µM
[9]
  TGI: > 100 µM
[10]
  TGI: > 100 µM
[11]
  TGI: > 100 µM
[12]
  TGI: > 100 µM
[13]
  TGI: > 100 µM
[14]
  TGI: > 100 µM
[15]
  TGI: > 100 µM
[16]
  TGI: > 100 µM
[17]
  TGI: > 100 µM
[18]
  TGI: > 100 µM
[19]
  TGI: > 100 µM
[20]
  TGI: > 100 µM
[21]
  TGI: > 100 µM
[22]
  TGI: > 100 µM
[23]
  TGI: > 100 µM
[24]
  TGI: > 100 µM
[25]
  TGI: > 100 µM
[26]
  TGI: > 100 µM
[27]
  TGI: > 100 µM
[28]
  TGI: > 100 µM
[29]
  TGI: > 100 µM
[30]
  TGI: > 100 µM
[31]
  TGI: > 100 µM
[32]
  TGI: > 100 µM
[33]
  TGI: > 100 µM
[34]
  TGI: > 100 µM
[35]
  TGI: > 100 µM
[36]
  TGI: > 100 µM
[37]
  TGI: > 100 µM
[38]
  TGI: > 100 µM
[39]
  TGI: > 100 µM
[40]
  TGI: > 100 µM
[41]
  TGI: > 100 µM
[42]
  TGI: > 100 µM
[43]
  TGI: > 100 µM
[44]
  TGI: > 100 µM
[45]
  TGI: > 100 µM
[46]
  TGI: > 100 µM
[47]
  TGI: > 100 µM
[48]
  TGI: > 100 µM
[49]
  TGI: > 100 µM
[50]
  TGI: > 100 µM
[51]
  TGI: > 100 µM

## COc1ccc(-c2cc(-c3ccccc3)nc(N)c2-c2ccc3ccccc3c2)cc1
[1]
  TGI: 3.1 µM
[2]
  TGI: 5.08 µM
[3]
  TGI: 5.39 µM
[4]
  TGI: 4.77 µM
[5]
  TGI: 3.09 µM
[6]
  TGI: 15.1 µM
[52]
  TGI: > 100 µM
[7]
  TGI: 3.21 µM
[9]
  TGI: 3.66 µM
[10]
  TGI: 3.29 µM
[11]
  TGI: 2.5 µM
[12]
  TGI: 2.92 µM
[14]
  TGI: 4.8 µM
[15]
  TGI: 2.91 µM
[16]
  TGI: 2.28 µM
[17]
  TGI: 3.11 µM
[53]
  TGI: > 100 µM
[18]
  TGI: 3.2 µM
[19]
  TGI: 3.1 µM
[20]
  TGI: 5.68 µM
[54]
  TGI: 2.75 µM
[21]
  TGI: 3.36 µM
[22]
  TGI: 3.17 µM
[23]
  TGI: 4.68 µM
[24]
  TGI: 3.17 µM
[25]
  TGI: 7.38 µM
[26]
  TGI: 2.99 µM
[27]
  TGI: 3.71 µM
[28]
  TGI: 2.9 µM
[30]
  TGI: 5.08 µM
[31]
  TGI: 2.42 µM
[32]
  TGI: 3.71 µM
[33]
  TGI: 3.09 µM
[55]
  TGI: 5.45 µM
[56]
  TGI: 4.74 µM
[34]
  TGI: 3.39 µM
[35]
  TGI: 9.2 µM
[38]
  TGI: 3.88 µM
[40]
  TGI: 3.27 µM
[41]
  TGI: 17.4 µM
[42]
  TGI: 3.43 µM
[43]
  TGI: 2.57 µM
[44]
  TGI: 5 µM
[57]
  TGI: 7.31 µM
[46]
  TGI: 3.38 µM
[47]
  TGI: 11.6 µM
[49]
  TGI: 3.52 µM
[50]
  TGI: 2.96 µM
[51]
  TGI: 5.13 µM
